Assay results reported in PubChem BioAssay (NCI).
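48-hour exposure; five concentrations; linearly interpolated endpoints. GI50 = concentration required for 50% inhibition of growth. Definition used: TGI = concentration required for complete inhibition of growth.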

Columns and labels:
Assay in all cases: NCI-60 cell line screen, 48 h
HCC-2998 colon = tested on: HCC-2998 colon
UACC-257 melanoma = tested on: UACC-257 melanoma
BT-549 breast = tested on: BT-549 breast
EKVX NSCLC = tested on: EKVX NSCLC
HCT-15 colon = tested on: HCT-15 colon
SF-268 CNS = tested on: SF-268 CNS
HL-60(TB) leukemia = tested on: HL-60(TB) leukemia
A549 NSCLC = tested on: A549 NSCLC
SF-539 CNS = tested on: SF-539 CNS
IGROV1 ovarian = tested on: IGROV1 ovarian

SMILES	GI50 (HCC-2998 colon)	TGI (HCC-2998 colon)	GI50 (UACC-257 melanoma)	TGI (UACC-257 melanoma)	GI50 (BT-549 breast)	TGI (BT-549 breast)	GI50 (EKVX NSCLC)	TGI (EKVX NSCLC)	GI50 (HCT-15 colon)	TGI (HCT-15 colon)	GI50 (SF-268 CNS)	TGI (SF-268 CNS)	GI50 (HL-60(TB) leukemia)	TGI (HL-60(TB) leukemia)	GI50 (A549 NSCLC)	TGI (A549 NSCLC)	GI50 (SF-539 CNS)	TGI (SF-539 CNS)	GI50 (IGROV1 ovarian)	TGI (IGROV1 ovarian)
COc1cccc(/C=N/NC(=O)c2ccccc2Nc2ccnc(C(F)(F)F)c2)c1O	290 nM	33.5 µM	346 nM	5.88 µM	567 nM	54.3 µM	517 nM	> 100 µM	201 nM	> 100 µM	488 nM	> 51.1 µM	215 nM	0.677 µM	870 nM	> 34.1 µM	583 nM	11.3 µM	23.4 nM	0.0745 µM
CN(C)CCC(=O)N1C/C(=C/c2ccccc2)C(=O)/C(=C\c2ccccc2)C1	–	2.45 µM	–	4.61 µM	–	2.81 µM	–	12.6 µM	–	3.91 µM	–	9.22 µM	–	1.81 µM	–	13.5 µM	–	11.9 µM	–	7.02 µM
Cc1cc(N(CCOS(C)(=O)=O)CCOS(C)(=O)=O)ccc1C=Nc1ccc(-c2nc(Cc3ccccc3)sc2C)cc1	–	15.7 µM	–	28.4 µM	–	34.8 µM	–	15.8 µM	–	35.2 µM	–	20.4 µM	–	28.9 µM	–	21.6 µM	–	14.8 µM	–	28 µM
O=C(Nc1ccc(N2CCNCC2)cc1)c1[nH]ncc1Nc1cc(Oc2ccccc2)ncn1	1950 nM	4.2 µM	2860 nM	8.69 µM	1840 nM	3.58 µM	1990 nM	6.79 µM	2180 nM	5.64 µM	3570 nM	14.4 µM	1910 nM	4.54 µM	1070 nM	2.95 µM	1690 nM	3.35 µM	3000 nM	11.3 µM
O=C(CN1CCOCC1)Nc1ccc(Cn2nnc3c2C(=O)c2nnn(Cc4ccc(NC(=O)CN5CCOCC5)cc4)c2C3=O)cc1	348 nM	1.34 µM	253 nM	0.624 µM	1460 nM	2.83 µM	1380 nM	2.98 µM	7420 nM	> 100 µM	334 nM	1.94 µM	204 nM	0.61 µM	1990 nM	4.97 µM	304 nM	1.07 µM	361 nM	1.64 µM
CC1=C(CCCNS(C)(=O)=O)C2=C(C)C3(CC3)[C@@](C)(O)C(=O)C2=C1	1520 nM	4.51 µM	1780 nM	4.41 µM	749 nM	3.89 µM	2310 nM	7.72 µM	1230 nM	> 100 µM	373 nM	14.2 µM	1980 nM	> 24 µM	1640 nM	24.8 µM	969 nM	3.26 µM	259 nM	1.15 µM
O=NN(Cc1ccc(Cl)cc1)C(C(=O)O)c1ccccc1 (stereo not drawn)	–	> 100 µM	–	> 100 µM	–	> 100 µM	–	> 100 µM	–	> 100 µM	–	> 100 µM	–	> 100 µM	–	> 100 µM	–	> 100 µM	–	> 100 µM
CCOc1cccc(/C=N/NC(=O)c2ccccc2Nc2ccnc(C(F)(F)F)c2)c1O	398 nM	> 44.2 µM	693 nM	47.6 µM	494 nM	53.6 µM	404 nM	> 100 µM	195 nM	> 100 µM	599 nM	> 100 µM	253 nM	0.621 µM	1640 nM	> 100 µM	501 nM	6.33 µM	42.5 nM	0.243 µM
CSc1ccc(C2=NN(C(C)=O)C(c3cc(C)cs3)C2)cc1 (stereo not drawn)	20000 nM	> 100 µM	28400 nM	96.1 µM	17100 nM	63.7 µM	24300 nM	> 100 µM	24600 nM	> 100 µM	35600 nM	> 100 µM	11800 nM	29.8 µM	27200 nM	> 100 µM	39800 nM	> 100 µM	29700 nM	> 100 µM
Cc1c(C(=O)N/N=C/c2ccc(Cl)cc2)nnn1-c1ccnc2c(C(F)(F)F)cccc12	9540 nM	53.1 µM	2890 nM	6.91 µM	22900 nM	52.3 µM	25300 nM	> 100 µM	2880 nM	16.3 µM	11700 nM	28.2 µM	6390 nM	48 µM	2100 nM	4.63 µM	12600 nM	25.8 µM	9060 nM	37 µM
Nc1ccn(C2O[C@H](CO)[C@@H](O)[C@@H]2O)c(=O)n1 (stereo partly drawn)	68500 nM	> 100 µM	–	> 100 µM	–	> 100 µM	–	> 100 µM	–	> 100 µM	–	> 100 µM	> 100000 nM	> 100 µM	24600 nM	> 100 µM	–	> 100 µM	–	> 100 µM
